Legend:
human LIF = human LIF (Homo sapiens, UniProt P15018); assay: ELISA binding of biotinylated dioxin to LIF; details: species not given
Procedure: The applicants utilized the same biotinylated dioxin as Petrenko in an ELISA assay for binding to LIF, to several mutants of the LIF protein changed in the EPFP homology domain (residues 50-53), to anti-dioxin antibodies as a positive control, and to ciliary neurotrophic factor (CNTF) (structurally similar to LIF but lacking the SEQ. ID NO. 5 motif) as a negative control. […] to human and murine LIF with a KD of approximately 10-100 μM, indicating an affinity approximately 10,000 fold less than the anti-dioxin antibodies used as a positive control.

Bcl-2/GST fusion protein [1] = molecular target: T1, Bcl-2/GST fusion protein (Homo sapiens, UniProt P10415); assay: ELISA binding of Bcl-2/GST fusion protein to immobilized biotinylated taxane; details: confirmation of binding of Bcl-2 to taxol
T1 sequence (P10415 whole entry, the tested form may be a part): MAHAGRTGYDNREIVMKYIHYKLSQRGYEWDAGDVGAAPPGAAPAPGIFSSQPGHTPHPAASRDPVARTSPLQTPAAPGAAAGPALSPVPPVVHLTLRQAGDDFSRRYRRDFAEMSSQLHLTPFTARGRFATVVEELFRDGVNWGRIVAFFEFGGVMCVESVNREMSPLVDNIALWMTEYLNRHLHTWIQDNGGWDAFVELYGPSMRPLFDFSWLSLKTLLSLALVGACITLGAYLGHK
Excerpt: ELISA binding assays were used to determine if the Bcl-2/GST fusion protein binds directly to immobilized biotinylated taxol. Anti-Bcl-2 antibodies were used to detect Bcl-2 binding. […] The x-axis is the log nM concentration of protein in solution (Bcl-2 or Bcl-XL); the y-axis is the uncorrected optical density at 490 nm. The insert is the chemical structure of the biotinylated taxol used in the selection of peptides.

GST = GST (Schistosoma japonicum, UniProt P08515); assay: Circular dichroism control: purified GST with and without taxol; assay type: binding; details: GST alone
GST, sequence (P08515 whole entry): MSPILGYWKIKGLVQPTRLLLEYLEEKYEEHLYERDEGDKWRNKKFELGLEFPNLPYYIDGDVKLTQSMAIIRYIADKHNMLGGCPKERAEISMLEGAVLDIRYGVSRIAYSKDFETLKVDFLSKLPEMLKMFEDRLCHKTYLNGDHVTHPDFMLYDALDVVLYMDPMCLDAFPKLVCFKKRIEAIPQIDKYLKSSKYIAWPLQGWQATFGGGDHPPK
Procedure: In a control experiment, taxol was added to purified GST from S. japonicum. […] The differences are far smaller than the error bars, and there is no change in the 220/210 nm ratio, nor is a peak shift observed. This means that were there any net structural change within the GST molecule alone, it would involve less than 0.5% of its total secondary structure. […] Furthermore, this binding has significant structural consequences for the Bcl-2 protein, involving approximately 15% to 20% of the loop residues.

[2] = tested on: 697 human acute leukemia pre-B cells; details: 697 cells; cited from earlier work
Bcl-2/GST fusion protein [3] = molecular target: T1, Bcl-2/GST fusion protein; assay: Circular dichroism spectroscopy of Bcl-2/GST with and without taxol; assay type: binding
Excerpt: Each spectrum is the averaged result of five spectra and subtracted baselines with standard deviations as indicated. These differences are much larger than the error bars (standard deviations) in the measurements, and involve a change in both the shape of the curve (ratio of the 220/210 nm peaks) and the peak positions. The secondary structures calculated for the Bcl-2 fusion protein with and without taxol differ by approximately 4%, and appear to involve a change in a region of the molecule that is found in a beta-turn conformation. This corresponds to the type of secondary structure which is predicted for the HTPHP-containing portion of the Bcl-2 loop region (SEQ. ID No. 3). […] Homology between TAX2.29 and human Bcl-2 lies between positions 1 through 12 and residues 55 through 66 respectively, inferring a minimum drug/protein interaction of at least twelve amino acids.

human LIF, sequence (P15018 23-202): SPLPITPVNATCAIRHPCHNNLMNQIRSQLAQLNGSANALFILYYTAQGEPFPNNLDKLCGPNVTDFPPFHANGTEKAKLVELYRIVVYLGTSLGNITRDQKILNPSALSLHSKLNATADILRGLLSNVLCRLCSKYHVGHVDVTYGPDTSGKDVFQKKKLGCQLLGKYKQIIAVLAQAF

C1=COC=CO1 [dioxin]
binding affinity in words (human LIF): at least micromolar affinity

CC(=O)O[C@H]1C(=O)[C@@]2(C)[C@H]([C@H](OC(=O)c3ccccc3)[C@]3(O)C[C@H](OC(=O)[C@H](O)[C@@H](NC(=O)c4ccccc4)c4ccccc4)C(C)=C1C3(C)C)[C@]1(OC(C)=O)CO[C@@H]1C[C@@H]2O [taxol]
binding affinity in words (Bcl-2/GST fusion protein [1]): micromolar affinity
CD spectra with and without taxol (GST): virtually identical
net structural change as share of total secondary structure (GST): less than 0.5%
apoptosis [2]: induces
phosphorylation of Bcl-2 [2]: induces
difference in calculated secondary structure with and without taxol (Bcl-2/GST fusion protein [3]; CD, beta-turn region): approximately 4%
conformational change upon binding taxol (CD spectrum) (Bcl-2/GST fusion protein [3]; spectra with and without taxol): substantial conformational change

CC(=O)O[C@@]12CO[C@@H]1C[C@H](O)[C@@]1(C)C(=O)[C@H](O)C3=C(C)[C@@H](OC(=O)[C@H](O)[C@@H](NC(=O)OC(C)(C)C)c4ccccc4)C[C@@](O)([C@@H](OC(=O)c4ccccc4)[C@H]21)C3(C)C [taxotere]
apoptosis [2]: induces
phosphorylation of Bcl-2 [2]: induces

From patent publication US6897028B1, “Identification of molecular targets” (Florida State University, priority 1997, dated 2005)
